Patent US11377429B2, “Benzothia(di)azepine compounds and their use as bile acid modulators” (Albireo AB, priority 2020, dated 2022)

Tests used:
Human LBAT = target: T1, Human LBAT (Homo sapiens, UniProt Q14973); experiment: LBAT (h/m) assay, human LBAT-overexpressing cells, 3H-taurocholic acid uptake; assay type: cell-based; details: read-out: hLBAT IC50
T1 construct: expressed in transfected cells; cultured under Geneticin selection
T1 sequence (Q14973 1-349): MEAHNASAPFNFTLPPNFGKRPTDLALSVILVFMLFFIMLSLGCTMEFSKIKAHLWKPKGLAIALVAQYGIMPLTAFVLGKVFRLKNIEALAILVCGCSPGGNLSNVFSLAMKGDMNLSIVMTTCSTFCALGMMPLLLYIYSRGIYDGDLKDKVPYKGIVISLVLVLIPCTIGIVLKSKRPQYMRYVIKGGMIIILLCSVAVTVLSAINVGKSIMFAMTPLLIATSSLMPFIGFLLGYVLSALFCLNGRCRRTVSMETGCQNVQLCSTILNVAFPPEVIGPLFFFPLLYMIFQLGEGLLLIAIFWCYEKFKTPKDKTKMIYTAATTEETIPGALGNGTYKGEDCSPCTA
Experimental: LBAT (h/m) Assay Protocol
20,000 cells (Human or Mouse LBAT-overexpressing cells) were seeded in 96-wells plate (Corning CLS3809) in 100 μL MEM-alpha medium (Gibco 12571-063) supplemented with 10% FBS (Gibco 10438026) containing Geneticin (Gibco 10131-027) (1 mg/mL) and incubated at 37° C. in 5% CO2 for 24 hours. After incubation, media was decanted from the wells and cells were washed two times with 300 μL of basal MEM-alpha medium (FBS-free). After decanting basal MEM-alpha medium each time, plates were tapped against paper towel to ensure maximum removal of residual media. For human LBAT, incubation mix was prepared by adding test inhibitor dilutions (3-fold serial dilution in DMSO (Sigma D2650), 10 points) in MEM-alpha (without FBS) containing 0.3 μM 3H-taurocholic acid (ARC ART-1368) and 7.5 μM cold taurocholic acid (Sigma T4009) (maintaining 0.2% final DMSO concentration). For mouse LBAT, incubation mix was prepared by adding test inhibitor dilutions (3-fold serial dilution in DMSO, 10 points) in MEM-alpha (without FBS) containing 0.3 μM 3H-taurocholic acid and 25 μM cold taurocholic acid maintaining 0.2% final DMSO concentration). 50 μL of incubation mix containing test inhibitors was then added to the wells (in duplicate) and the plates were incubated for 20 minutes in a CO2 incubator at 37° C. After incubation, the reaction was stopped by keeping the plates on ice water mix for 2-3 minutes and then the incubation mix was aspirated completely from the wells. The wells were washed two times with 250 μL of chilled unlabeled 1 mM taurocholic acid dissolved in HEPES (Gibco 15630080)-buffered (10 mM) HBSS (Gibco 14175079) (pH 7.4). The plates were tapped against a paper towel after every wash to ensure maximum removal of blocking buffer.
100 μL of MicroScint-20 (PerkinElmer 6013621) was added to the wells and kept overnight at room temperature before reading the plates in TopCount NXT™ Microplate Scintillation and Luminescence Counter from PerkinElmer under 3H Test protocol (set at 120 seconds reading time per well, with normal plate orientation).
(§1) Preparation of Test Compound Dilutions
(§2) All test compounds were provided in powder form at room temperature. 10 mM DMSO stocks of the test compounds were prepared, aliquoted and stored at −20° C. From the 10 mM DMSO stock of the compounds, a 3-fold serial dilution in DMSO was prepared to get a total of 10 dilutions of the test compounds. 0.5 μL of this dilution in DMSO was added to 250 μL of FBS-free basal media containing 3H-taurocholic acid and cold taurocholic acid to prepare the incubation mixture.

Human IBAT = target: T2, Human IBAT (Homo sapiens, UniProt Q12908); experiment: IBAT (h/m) assay, human IBAT-overexpressing cells, 3H-taurocholic acid uptake; assay type: cell-based; details: read-out: hIBAT IC50
T2 construct: expressed in transfected cells; cultured under Puromycin selection
T2 sequence (Q12908 1-348): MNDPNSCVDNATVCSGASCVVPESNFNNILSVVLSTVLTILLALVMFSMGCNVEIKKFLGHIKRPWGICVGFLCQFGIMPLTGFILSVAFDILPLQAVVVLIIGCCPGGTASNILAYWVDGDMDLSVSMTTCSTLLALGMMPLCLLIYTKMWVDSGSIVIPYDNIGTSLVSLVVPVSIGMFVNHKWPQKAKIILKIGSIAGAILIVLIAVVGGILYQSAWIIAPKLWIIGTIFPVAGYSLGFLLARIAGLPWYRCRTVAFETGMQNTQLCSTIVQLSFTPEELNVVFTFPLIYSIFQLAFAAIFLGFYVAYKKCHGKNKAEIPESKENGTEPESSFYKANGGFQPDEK
Experimental: IBAT (h/m) Assay Protocol
10,000 cells (Human or Mouse IBAT-overexpressing cells) were seeded in 96-wells plate (Corning CLS3809) in 200 μL MEM-alpha medium (Gibco 12571-063) supplemented with 10% FBS (Gibco 10438026) containing Puromycin (Gibco A1113803) (10 μg/mL) and incubated at 37° C. in 5% CO2 for 48 hours. After incubation, media was decanted from the wells and cells were washed two times with 300 μL of basal MEM-alpha medium (FBS-free). After decanting basal MEM-alpha medium each time, plates were tapped against paper towel to ensure maximum removal of residual media. Test inhibitor dilutions (highest test concentration being 10 μM, 3-fold serial dilution, 10 points) prepared in DMSO (Sigma D2650) were added in incubation mix (maintaining 0.2% final DMSO concentration) containing 0.25 μM 3H-taurocholic acid (ARC ART-1368) and 5 μM of cold taurocholic acid (Sigma T4009). 50 μL of incubation mix containing test inhibitors was then added to the wells (in duplicate) and the plates were incubated for 20 minutes in a CO2 incubator at 37° C. After incubation, the reaction was stopped by keeping the plates on ice water mix for 2-3 minutes and then the incubation mix was aspirated completely from the wells. The wells were washed two times with 250 μL of chilled unlabeled 1 mM taurocholic acid dissolved in HEPES (Gibco 15630080)-buffered (10 mM) HBSS (Gibco 14175079) (pH 7.4). The plates were tapped against a paper towel after every wash to ensure maximum removal of blocking buffer. 100 μL of MicroScint-20 (PerkinElmer 6013621) was added to the wells and kept overnight at room temperature before reading the plates in TopCount NXT™ Microplate Scintillation and Luminescence Counter from PerkinElmer under 3H Test protocol (set at 120 seconds reading time per well).
as §1, §2

| IC50 (Human LBAT) [nM] | IC50 (Human IBAT) [nM] | Structure (SMILES) |
| --- | --- | --- |
| 83 | 338 | CCC1(CC)CN(c2ccccc2)c2cc(SC)c(OCC(C)(F)C(=O)O)cc2S(=O)(=O)C1 (stereo not shown) [Example 6, 3-((3,3-diethyl-7-(methylthio)-1,1-dioxido-5-phenyl-2,3,4,5-tetrahydro-1,5-benzothiazepin-8-yl)oxy)-2-fluoro-2-methylpropanoic Acid] |
| 2990 | 4 | CCCCC1(CC)CN(c2ccc(F)cc2)c2cc(SC)c(OCC(OC)C(=O)O)cc2S(=O)(=O)C1 (stereo not shown) [Example 8, 3-((3-butyl-3-ethyl-5-(4-fluorophenyl)-7-(methylthio)-1,1-dioxido-2,3,4,5-tetrahydro-1,5-benzothiazepin-8-yl)oxy)-2-methoxypropanoic Acid] |
| 5410 | 10 | CCCCC1(CCCC)CN(c2ccc(F)cc2)c2cc(SC)c(OCC(OC)C(=O)O)cc2S(=O)(=O)C1 (stereo not shown) [Example 9, 3-((3,3-dibutyl-5-(4-fluorophenyl)-7-(methylthio)-1,1-dioxido-2,3,4,5-tetrahydro-1,5-benzothiazepin-8-yl)oxy)-2-methoxypropanoic Acid] |
|  | 10 | CCCCC1(CC)CN(c2ccc(F)cc2)c2cc(SC)c(OCC(OCC)C(=O)O)cc2S(=O)(=O)C1 (stereo not shown) [Example 11, 3-((3-butyl-3-ethyl-5-(4-fluorophenyl)-7-(methylthio)-1,1-dioxido-2,3,4,5-tetrahydro-1,5-benzothiazepin-8-yl)oxy)-2-ethoxypropanoic Acid] |
| 1250 | 3 | CCCCC1(CCCC)CN(c2ccccc2)c2cc(SC)c(OCC(OCC)C(=O)O)cc2S(=O)(=O)C1 (stereo not shown) [Example 12, 3-((3,3-dibutyl-7-(methylthio)-1,1-dioxido-5-phenyl-2,3,4,5-tetrahydro-1,5-benzothiazepin-8-yl)oxy)-2-ethoxypropanoic Acid] |
| 21 | 256 | CCC1(CC)CN(c2ccc(F)cc2)c2cc(SC)c(OCC(C)(C)C(=O)O)cc2S(=O)(=O)C1 [Example 13, 3-((3,3-diethyl-5-(4-fluorophenyl)-7-(methylthio)-1,1-dioxido-2,3,4,5-tetrahydro-1,5-benzothiazepin-8-yl)oxy)-2,2-dimethylpropanoic Acid] |
| 3680 | 30 | CCCC1(CCC)CN(c2ccccc2)c2cc(SC)c(OCC(O)C(=O)O)cc2S(=O)(=O)C1 (stereo not shown) [Example 14, 2-Hydroxy-3-((7-(methylthio)-1,1-dioxido-5-phenyl-3,3-dipropyl-2,3,4,5-tetrahydro-1,5-benzothiazepin-8-yl)oxy)propanoic Acid] |

Further lines, the compound ahead of its results:

| Structure (SMILES) | IC50 (Human LBAT) [nM] | IC50 (Human IBAT) [nM] |
| --- | --- | --- |
| CCCCC1(CC)CN(c2ccc(F)cc2)c2cc(SC)c(OCC3(C(=O)O)CC3)cc2S(=O)(=O)C1 (racemic) [Example 2, 1-(((3-butyl-3-ethyl-5-(4-fluorophenyl)-7-(methylthio)-1,1-dioxido-2,3,4,5-tetrahydro-1,5-benzothiazepin-8-yl)oxy)methyl)cyclopropane-1-carboxylic Acid] | 320 | 11 |
| CCCCC1(CC)CN(c2ccc(F)cc2)c2cc(SC)c(OCC(C)(C)C(=O)O)cc2S(=O)(=O)C1 (racemic) [Example 4, 3-((3-butyl-3-ethyl-5-(4-fluorophenyl)-7-(methylthio)-1,1-dioxido-2,3,4,5-tetrahydro-1,5-benzothiazepin-8-yl)oxy)-2,2-dimethylpropanoic Acid] | 173 | 37 |
| CCCCC1(C)CN(c2ccc(F)cc2)c2cc(SC)c(OCC(O)C(=O)O)cc2S(=O)(=O)C1 (single isomer, unassigned) [1, diastereomer 2] | 2020 | 2 |
| CCCCC1(C)CN(c2ccc(F)cc2)c2cc(SC)c(OCC(O)C(=O)O)cc2S(=O)(=O)C1 (single isomer, unassigned) [1, diastereomer 3] | 921 | 61 |
| CCCCC1(C)CN(c2ccc(F)cc2)c2cc(SC)c(OCC(O)C(=O)O)cc2S(=O)(=O)C1 (single isomer, unassigned) [1, diastereomer 4] | 1050 | 122 |
| CCCCC1(CC)CN(c2ccc(F)cc2)c2cc(SC)c(OCC3(C(=O)O)CC3)cc2S(=O)(=O)C1 (single isomer, unassigned) [3, enantiomer 2] | 1080 | 258 |
| CCCCC1(CC)CN(c2ccc(F)cc2)c2cc(SC)c(OCC(C)(C)C(=O)O)cc2S(=O)(=O)C1 (single isomer, unassigned) [5, enantiomer 2] | 119 | 770 |
| CCCCC1(CCCC)CN(c2ccc(F)cc2)c2cc(SC)c(OCC(OC)C(=O)O)cc2S(=O)(=O)C1 (single isomer, unassigned) [10, enantiomer 1] | > 6670 | 40 |
| CCCCC1(CCCC)CN(c2ccc(F)cc2)c2cc(SC)c(OCC(OC)C(=O)O)cc2S(=O)(=O)C1 (single isomer, unassigned) [10, enantiomer 2] | > 2220 | 4 |
